Key:
Type in all cases: physicochemical
[1] = Solubility of PAG in organic solvents at 20° C.; settings: for Solubility (w/w%) PGMEA: Propylene glycol monomethyl ether acetate; for Solubility (w/w%) GBL: γ-Butyrolactone; for solubility in the tested solvents: PGMEA, GBL; for Solubility (w/w%) Cyclohexanone / solubility in the tested solvents: cyclohexanone
Source text: Solubility is an important factor in the evaluation of a PAG. High solubility not only makes a PAG purified readily but also enables a PAG to be used for a wide range of concentrations in photoresists and in varied solvent systems. To test the solubility of a PAG, a solvent is slowly added until the PAG is completely dissolved and no turbidity is observed in the clear solution. Table 8 lists the solubility (w/w %) of some representative N-hydroxynaphthalimide sulfonate derivatives versus NIT in various organic solvents at 20° C.

[2] = Photolysis of PAGs in acetonitrile, irradiation at 365 nm (photoreactivity); settings: for Solubility × Photoreactivity: solubility in PGMEA times relative photoreactivity at 365 nm
Source text: A photoresist composition typically comprises PAG, polymers, additives and solvents. The performance of a photoresist composition is mainly dependent on the properties of the PAG and polymer components. To formulate a high-performance photoresist composition, more photosensitive PAGs are typically selected. The photosensitivity of a PAG is typically directly related to the strength of the generated acid and the photoreactivity of the PAG. For a series of PAGs producing the same latent acid, their photosensitivity is related only to their photoreactivity. Thus evaluating the photosensitivity of a PAG can be achieved by studying its photoreactivity. The higher photoreactivity, the higher photosensitivity. The photoreactivity can be investigated by photolysis of a PAG in its dilute solution under low exposure intensity (to avoid side reactions which don't generate the desired acid). The change in the concentration of a PAG upon irradiation can be determined by measuring the absorbance of the PAG at the maximum absorption wavelength.
(§1) Photolysis of PAGs was carried out in acetonitrile in air at room temperature. The sodium salt of tetrabromophenol blue (TBPBNa), an acid indicator dye, which has a maximum absorption at 618 nm, was purchased from Aldrich (indicator grade) and used as received. Irradiation of the solution of the PAGs (3×10^−5 M) was performed using a Cole-Parmer UV 15 W bench lamp (EW-97605-50) at 365 nm. Light intensity was measured using an UV Power Puck II radiometer from EIT Inc. UV-Vis spectra were run on a Thermo Scientific Evolution 201 UV-visible spectrophotometer.
Photolysis of NIT, comparative compound A and B, T1, T2, T3, and T5 was examined in acetonitrile. […] The absorption band at 362 nm (λmax) gradually decreases upon irradiation, indicating the progress of photoreaction with the increase of exposure dose of energy. Assuming the photoreaction is first-order, a plot of the natural log of changes in absorbance with exposure dose of energy gives the photoreaction constant of T3 (i.e., the slope of the linear trendline) (FIG. 2). The photoreaction constants of other compounds were similarly determined under the same irradiation condition. Comparing the constants of A, B, T1, T2, T3, and T5 with that of NIT normalized to one gives the relative photoreactivity (Table 9). […] The formation of acid upon irradiation was confirmed by observing the spectral changes of the acid indicator, TBPBNa at 618 nm.

[3] = Solubility of PAG in organic solvents at 20° C.; settings: Table 9; Propylene glycol monomethyl ether acetate
UV-Vis spectra in ACN = settings: FIG. 4, in ACN (0.001% w/v)
Protocol: FIG. 4 is a UV-Vis spectra of compounds NIT, T1, T2 and T5 in ACN (0.001% w/v).
as §1

Solubility (w/w%) PGMEA [1] [% w/w%]	Solubility (w/w%) Cyclohexanone [1] [% w/w%]	Solubility (w/w%) GBL [1] [% w/w%]	Solubility × Photoreactivity [2] [%]	Solubility (w/w%) in PGMEA [3] [% w/w%]	absorbance at i-line of a mercury lamp versus NIT (UV-Vis spectra in ACN)	absorption maximum (UV-Vis spectra in ACN) [nm]	solubility in the tested solvents [1]	Compound	absorption band (λmax) ([2]; FIG. 1, acetonitrile, before irradiation at 365 nm) [nm]
50.1	55.4	32.4	200	50.1	much larger than that of NIT	353	extremely high solubility	CCCC(=O)OCC#Cc1ccc2c3c(cccc13)C(=O)N(OS(=O)(=O)C(F)(F)F)C2=O [Compound T5]	
45.8	52.4	23.1	394	45.8	much larger than that of NIT	362	extremely high solubility	CCCCCCC#Cc1ccc2c3c(cccc13)C(=O)N(OS(=O)(=O)C(F)(F)F)C2=O [Compound T2]	

Continued, compound first:

Compound	Solubility (w/w%) PGMEA [1] [% w/w%]	Solubility (w/w%) Cyclohexanone [1] [% w/w%]	Solubility (w/w%) GBL [1] [% w/w%]	Solubility × Photoreactivity [2] [%]	Solubility (w/w%) in PGMEA [3] [% w/w%]	absorbance at i-line of a mercury lamp versus NIT (UV-Vis spectra in ACN)	absorption maximum (UV-Vis spectra in ACN) [nm]	solubility in the tested solvents [1]	absorption band (λmax) ([2]; FIG. 1, acetonitrile, before irradiation at 365 nm) [nm]
O=C1c2cccc3c(C#Cc4ccccc4)ccc(c23)C(=O)N1OS(=O)(=O)C(F)(F)F [A, reference compound]	1.0	3.5	0.9	2.5	1.0				
CCCCC#Cc1ccc2c3c(cccc13)C(=O)N(OS(=O)(=O)C(F)(F)C(F)(F)C(F)(F)C(F)(F)F)C2=O [Compound T1]	8.3	19.7	1.5	77.2	8.3	much larger than that of NIT	362		
CCCCCCC#Cc1ccc2c3c(cccc13)C(=O)N(OS(=O)(=O)C(F)(F)C(F)(F)C(F)(F)C(F)(F)F)C2=O [Compound T3]	20.6	42.0	2.2	198	20.6				362
CCCCC#Cc1ccc2c3c(cccc13)C(=O)N(OS(=O)(=O)C(F)(F)F)C2=O [B, reference compound]	6.1	11.5	2.3	48.8	6.1				
O=C1c2cccc3cccc(c23)C(=O)N1OS(=O)(=O)C(F)(F)F [NIT, N-Hydroxynaphthalimide triflate, reference compound]	1.7	5.9	2.2	1.7	1.7				
